Measurements reported in patent US12410171B2, “Tropomyosin receptor kinase (TRK) degradation compounds and methods of use” (Cullgen (Shanghai), Inc., priority 2020, dated 2025).

system: KM12 cells; test: KM12 cell viability (CellTiter-Glo); assay type: cell-based; settings: Homo sapiens, 72 h; KM12 cell viability, 11-point 3-fold serial dilution, 3 days, CellTiter-Glo; read-out: IC50
Protocol: KM12 or H358 cells were treated with 1000 nM CPD-053 following an 8-point 3-fold serial dilution for 3 days.
KM12 cells seeded in 96-well plates were treated with heterobifunctional compounds following a 11-point 3-fold serial dilution for 3 days.
KM12, H358, HEL, SU-DHL-1 and other cells were cultured at 37° C. with 5% CO2 in RPMI 1640 Medium supplemented with 10% fetal bovine serum. Cells were authenticated using the short tandem repeat (STR) assays. Mycoplasma test results were negative. Stable cell lines were established by lentivirus transduction, selected and maintained in medium containing 1 μg/mL puromycin (Beyotime Biotechnology).
Cells were seeded at a density of 5000 cells per well in 96-well assay plates and treated with test compounds following a 12-point 2-fold serial dilution or a 8-point 3-fold dilution, or 11-point 3-fold serial dilution. Three days later, cell viability was determined using the CellTiter-Glo assay kit (Promega) according to the manufacturer's instructions. The dose-response curves were determined and IC50 values were calculated using the GraphPad Prism software following a nonlinear regression (least squares fit) method.

Structure (SMILES) | IC50 [nM]
O=C1CCC(N2C(=O)c3ccc(NCC(=O)N4CCC(Nc5cccc(C(=O)Nc6cnn7ccc(N8CCC[C@@H]8c8cc(F)ccc8F)nc67)n5)CC4)cc3C2=O)C(=O)N1 (stereo partly drawn) [CPD-460, N-(5-((R)-2-(2,5-difluorophenyl)pyrrolidin-1-yl)pyrazolo[1,5-a]pyrimidin-3-yl)-6-((1-((2-(2,6-dioxopiperidin-3-yl)-1,3-dioxoisoindolin-5-yl)glycyl)piperidin-4-yl)amino)picolinamide] | 32
Cc1ncsc1-c1ccc(CNC(=O)[C@@H]2C[C@@H](O)CN2C(=O)[C@@H](NC(=O)CCC(=O)N2CCC(Nc3cccc(C(=O)Nc4cnn5ccc(N6CCC[C@@H]6c6cc(F)ccc6F)nc45)n3)CC2)C(C)(C)C)cc1 [CPD-461, N-(5-((R)-2-(2,5-difluorophenyl)pyrrolidin-1-yl)pyrazolo[1,2-a]pyrimidin-3-yl)-6-((1-(4-(((S)-1-((2S,4R)-4-hydroxy-2-((4-(4-methylthiazol-5-yl)benzyl)carbamoyl)pyrrolidin-1-yl)-3,3-dimethyl-1-oxobutan-2-yl)amino)-4-oxobutanoyl)piperidin-4-yl)amino)picolinamide] | > 1000
Cc1ncsc1-c1ccc(CNC(=O)[C@@H]2C[C@@H](O)CN2C(=O)[C@@H](NC(=O)CCCCC(=O)N2CCC(Nc3cccc(C(=O)Nc4cnn5ccc(N6CCC[C@@H]6c6cc(F)ccc6F)nc45)n3)CC2)C(C)(C)C)cc1 [CPD-462, N-(5-((R)-2-(2,5-difluorophenyl)pyrrolidin-1-yl)pyrrazolo[1,5-a]pyrimidin-3-yl)-6-((1-(6-(((S)-1-((2S,4R)-4-hydroxy-2-((4-(4-methylthiazol-5-yl)benzyl)carbamoyl)pyrrolidin-1-yl)-3,3-dimethyl-1-oxobutan-2-yl)amino)-6-oxohexanoyl)piperidin-4-yl)amino)picolinamide] | > 1000
Cc1ncsc1-c1ccc(CNC(=O)[C@@H]2C[C@@H](O)CN2C(=O)[C@@H](NC(=O)CCCCCCC(=O)N2CCC(Nc3cccc(C(=O)Nc4cnn5ccc(N6CCC[C@@H]6c6cc(F)ccc6F)nc45)n3)CC2)C(C)(C)C)cc1 [CPD-463, N-(5-((R)-2-(2,5-difluorophenyl)pyrrolidin-1-yl)pyrazolo[1,5-a]pyrimidin-3-yl)-6-((1-(8-(((S)-1-((2S,4R)-4-hydroxy-2-((4-(4-methylthiazol-5-yl)benzyl)carbamoyl)pyrrolidin-1-yl)-3,3-dimethyl1-oxobutan-2-yl)amino)-8-oxooctanoyl)piperidin-4-yl)amino)picolinamide] | 443
Cc1ncsc1-c1ccc(CNC(=O)[C@@H]2C[C@@H](O)CN2C(=O)[C@@H](NC(=O)CCCCCCCCC(=O)N2CCC(Nc3cccc(C(=O)Nc4cnn5ccc(N6CCC[C@@H]6c6cc(F)ccc6F)nc45)n3)CC2)C(C)(C)C)cc1 [CPD-464, N-(5-((R)-2-(2,5-difluorophenyl)pyrrolidin-1-yl)pyrazolo[1,5-a]pyrimidin-3-yl)-6-((1-(10-(((S)-1-((2S,4R)-4-hydroxy-2-((4-(4-methylthiazol-5-yl)benzyl)carbamoyl)pyrrolidin-1-yl)-3,3-dimethyl-1-oxobutan-2-yl)amino)-10-oxodecanoyl)piperidin-4-yl)amino)picolinamide] | 87

same assay, conditions: Homo sapiens, 72 h; KM12 cell viability, CellTiter-Glo, three days treatment; read-out: IC50

Structure (SMILES) | IC50 [nM]
Cc1ncsc1-c1ccc(CNC(=O)[C@@H]2C[C@@H](O)CN2C(=O)[C@@H](NC(=O)COCCOCCOCCOCCOCC(=O)N2CCN(c3cccc(-c4cnc5ccc(N6CCCC6c6cccc(F)c6)nn45)n3)CC2)C(C)(C)C)cc1 (stereo partly drawn) [CPD-003, (25,4R)-1-((S)-2-(tert-butyl)-20-(4-(6-(6-((R)-2-(3-Fluorophenyl)pyrrolidin-1-yl)imidazo[1,2-b]pyridazin-3-yl)pyridin-2-yl)piperazin-1-yl)-4,20-dioxo-6,9,12,15,18-pentaoxa-3-azaicosanoyl)-4-hydroxy-N-(4-(4-methylthiazol-5-yl)benzyl)pyrrolidine-2-carboxamide] | > 1000
Cc1ncsc1-c1ccc(CNC(=O)[C@@H]2C[C@@H](O)CN2C(=O)[C@@H](NC(=O)CCOCCOCCOCCOCCOCCC(=O)N2CCN(c3cccc(-c4cnc5ccc(N6CCCC6c6cccc(F)c6)nn45)n3)CC2)C(C)(C)C)cc1 (stereo partly drawn) [CPD-005, (25,4R)-1-((S)-2-(tert-butyl)-22˜ (4-(6-(6-((R)-2˜ (3-Fluorophenyl)pyrrolidin-1-yl)imidazo[1,2-b]pyridazin-3-yl)pyridin-2-yl)piperazin-1-yl)-4,22-dioxo-7,10,13,16,19-pentaoxa-3-azadocosanoyl)-4-hydroxy-N-(4-(4-methylthiazol-5-yl)benzyl)pyrrolidine-2-carboxamide] | > 1000
Cc1ncsc1-c1ccc(CNC(=O)[C@@H]2CC(O)CN2C(=O)[C@@H](NC(=O)CCOCCOCCOCCOCCOCCC(=O)N2CCN(c3ccc(C(=O)Nc4n[nH]c5ccc(Cc6cc(F)cc(F)c6)cc45)c(NC4CCOCC4)c3)CC2)C(C)(C)C)cc1 (stereo partly drawn) [CPD-043, (28,4R)-1-((S)-2-(tert-butyl)-22-(4-(4-((5-(3,5-Difluorobenzyl)-1H-indazol-3-yl)carbamoyl)-3-((tetrahydro-2H-pyran-4-yl)amino)phenyl)piperazin-1-yl)-4,22-dioxo-7,10,13,16,19-pentaoxa-3-azadocosanoyl)-4-hydroxy-N-(4-(4-methylthiazol-5-yl)benzyl)pyrrolidine-2-carboxamide] | > 1000

biological target: T1, TPM3-TRKA fusion protein (Homo sapiens, UniProt P04629); test: TPM3-TRKA fusion protein levels in KM12 cells (Western blot); assay type: cell-based; settings: 16 h; TPM3-TRKA degradation in KM12 cells at 10 nM compound, category of percentage degradation; read-out: Degradation (at 10 nM)
T1 construct: The resulted chimeric proteins always retain the kinase domain of TRK proteins; TPM3 (fusion partner, N-terminal part of tropomyosin alpha-3, P06753); endogenous in cells; host or cells: KM12 colon cancer cells; the other entry of the earlier key: TPM3 (P06753, Tropomyosin alpha-3 chain)
T1 sequence (P04629 with tags, fused parts or gaps): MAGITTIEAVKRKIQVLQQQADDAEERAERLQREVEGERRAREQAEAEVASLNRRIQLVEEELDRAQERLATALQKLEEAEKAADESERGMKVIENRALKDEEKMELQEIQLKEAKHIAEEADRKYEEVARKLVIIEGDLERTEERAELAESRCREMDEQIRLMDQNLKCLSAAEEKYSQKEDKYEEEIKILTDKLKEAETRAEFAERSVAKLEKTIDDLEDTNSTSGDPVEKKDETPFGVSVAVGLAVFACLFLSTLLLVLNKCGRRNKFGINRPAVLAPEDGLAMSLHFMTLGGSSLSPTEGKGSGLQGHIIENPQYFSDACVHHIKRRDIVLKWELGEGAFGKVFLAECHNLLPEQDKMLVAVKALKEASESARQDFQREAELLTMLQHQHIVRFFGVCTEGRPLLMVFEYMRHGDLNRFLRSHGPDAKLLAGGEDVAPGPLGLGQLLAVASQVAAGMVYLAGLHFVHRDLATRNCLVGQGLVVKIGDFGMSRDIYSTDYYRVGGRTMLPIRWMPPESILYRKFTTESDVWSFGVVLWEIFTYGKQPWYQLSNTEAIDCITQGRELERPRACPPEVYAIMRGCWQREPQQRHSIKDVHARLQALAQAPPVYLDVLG
In short: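 TPM3-TRKA levels were assessed by Western blot with chemiluminescent detection and band densitometry, after SDS-PAGE of BCA-normalized RIPA lysates. Before lysis, KM12 cells received DMSO, compounds or matched control compounds at concentrations including 0.1, 1, 10 and 100 nM and 0.4–30 nM. Exposures lasted 4 h, 8–16 h or 16 h.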

percent degradation of TPM3-TRKA protein at 0.01 µM [%] | Structure (SMILES)
> 80 | Cn1c(=O)n(C2CCC(=O)NC2=O)c2ccc(NCCN3CCN(c4cccc(-c5cnc6ccc(N7CCC[C@@H]7c7cccc(F)c7)nn56)n4)CC3)cc21 (stereo partly drawn) [TR-220, 3-(5-((2-(4-(6-(6-((R)-2-(3-Fluorophenyl)pyrrolidin-1-yl)imidazo[1,2-b]pyridazin-3-yl)pyridin-2-yl)piperazin-1-yl)ethyl)amino)-3-methyl-2-oxo-2,3-dihydro-1H-benzo[d]imidazol-1-yl)piperidine-2,6-dione]
50 to 80 | O=C1CCC(N2C[C@H](c3cccc(C#CCN4CCN(c5cccc(-c6cnc7ccc(N8CCC[C@@H]8c8cccc(F)c8)nn67)n5)CC4)c3)OC2=O)C(=O)N1 (stereo partly drawn) [TR-223, 3-((S)-5-(3-(3-(4-(6-(6-((R)-2-(3-fluorophenyl)pyrrolidin-1-yl)imidazo[1,2-b]pyridazin-3-yl)pyridin-2-yl)piperazin-1-yl)prop-1-yn-1-yl)phenyl)-2-oxooxazolidin-3-yl)piperidine-2,6-dione]
> 80 | O=C1CCC(N2C(=O)c3ccc(N4CCC(CN5CCN(c6cccc(-c7cnc8ccc(N9CCC[C@@H]9c9cccc(F)c9)nn78)n6)CC5)CC4)cc3C2=O)C(=O)N1 (stereo partly drawn) [TR-226, 2-(2,6-dioxopiperidin-3-yl)-5-(4-((4-(6-(6-((R)-2-(3-fluorophenyl)pyrrolidin-1-yl)imidazo[1,2-b]pyridazin-3-yl)pyridin-2-yl)piperazin-1-yl)methyl)piperidin-1-yl)isoindoline-1,3-dione]
50 to 80 | O=C1CCC(N2C[C@H](c3ccc(CN4CCN(c5cccc(-c6cnc7ccc(N8CCC[C@@H]8c8cccc(F)c8)nn67)n5)CC4)cc3)OC2=O)C(=O)N1 (stereo partly drawn) [TR-229, 3-((S)-5-(4-((4-(6-(6-((R)-2-(3-fluorophenyl)pyrrolidin-1-yl)imidazo[1,2-b]pyridazin-3-yl)pyridin-2-yl)piperazin-1-yl)methyl)phenyl)-2-oxooxazolidin-3-yl)piperidine-2,6-dione]
> 80 | O=C1CCC(N2C(=O)c3ccc(NCCN4CCN(c5ccc(C(=O)Nc6n[nH]c7ccc(Cc8cc(F)cc(F)c8)cc67)c(NC6CCOCC6)c5)CC4)cc3C2=O)C(=O)N1 (stereo not drawn) [TR-232, N-(5-(3,5-difluorobenzyl)-1H-indazol-3-yl)-4-(4-(2-((2-(2,6-dioxopiperidin-3-yl)-1,3-dioxoisoindolin-5-yl)amino)ethyl)piperazin-1-yl)-2-((tetrahydro-2H-pyran-4-yl)amino)benzamide]
50 to 80 | O=C1CCC(N2C[C@H](c3cccc(CN4CCN(c5cccc(-c6cnc7ccc(N8CCC[C@@H]8c8cccc(F)c8)nn67)n5)CC4)c3)OC2=O)C(=O)N1 (stereo partly drawn) [TR-235, 3—((S)-5-(3-((4-(6-(6-((R)-2-(3-Fluorophenyl)pyrrolidin-1-yl)imidazo[1,2-b]pyridazin-3-yl)pyridin-2-yl)piperazin-1-yl)methyl)phenyl)-2-oxooxazolidin-3-yl)piperidine-2,6-dione]

same assay, conditions: KM12, 16 h, read-out: Degradation (at 10 nM)

Structure (SMILES) | percent degradation of TPM3-TRKA protein at 0.01 µM [%]
Cn1c(=O)n(C2CCC(=O)NC2=O)c2cccc(OCCCN3CCN(c4cccc(-c5cnc6ccc(N7CCC[C@@H]7c7cccc(F)c7)nn56)n4)CC3)c21 (stereo partly drawn) [TR-245] | < 50
